# Test results taken from publication doi:10.1101/2021.08.27.457891v1, “Optical Control of Invertebrate nAChR and Behaviors with Dithienylethene-Imidacloprid” (biorxiv, 2021).
# pIC50, pKd: −log10 of the molar value.
# What was measured:
# [1] = target: T1, cockroach nAChRs; cockroach nAChR membranes; test: fluorescence polarization saturation binding; set-up: species or system Periplaneta americana; conditions: DitIMI irradiated at 320 nm for 15 min (photostationary mixture, 67% closed form); 227 mg/L membranes; 22 °C, 1 h
# T1 construct: gene nAChRalpha1; pentameric channel
# [2] = target: T2, Musca nAChR; housefly (Musca domestica) nAChR; test: [3H]NMI radioligand displacement; assay type: binding; conditions: competition with [3H]NMI
# T2 construct: gene nAChRalpha1; pentameric channel
smiles,measurement,setting,value
CC12SC(CN3CCN(Cc4ccc(Cl)nc4)C3=N[N+](=O)[O-])=CC1=C1C(=C3C=C(CN4CCN(Cc5ccc(Cl)nc5)C4=N[N+](=O)[O-])SC32C)C(F)(F)C(F)(F)C1(F)F (stereo not shown) [closed-DitIMI],pKd,[1],7.87
same,pIC50,"[2]; after UV illumination, photostationary mixture (67% closed form)",7.48
Cc1sc(CN2CCN(Cc3ccc(Cl)nc3)C2=N[N+](=O)[O-])cc1C1=C(c2cc(CN3CCN(Cc4ccc(Cl)nc4)C3=N[N+](=O)[O-])sc2C)C(F)(F)C(F)(F)C1(F)F [open-DitIMI],pIC50,[2]; unirradiated open form,6.05
O=[N+]([O-])N=C1NCCN1Cc1ccc(Cl)nc1 [IMI],pIC50,[2],7.54
